Data: PubChem BioAssay AID248 (DTP/NCI, 2004)
Where “and” joins values, the source holds several entries; their conditions need not be identical. Equal values may be shown once. Toxic doses and inconclusive results are not listed. Cut-off read from the data, not from the text of the source: active = T/C of 150% or more; inactive = T/C below 125%.

Test system: L1210 leukemia ip in BDF1 mice, survival T/C
Assay: NCI In Vivo Anticancer Drug Screen. Data for tumor model L1210 Leukemia (intraperitoneal) in B6D2F1 (BDF1) mice
Settings: endpoint: mean survival time, higher = longer survival
How it was run: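 Read-out is survival time, reported as the treated-group measurement over the vehicle-control measurement.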

[1] = dose: 100.0 mg/kg/injection, schedule: Q04DX003 (ip), vehicle: saline with Tween-80
[2] = dose: 200.0 mg/kg/injection, schedule: Q04DX003 (ip), vehicle: saline with Tween-80
[3] = dose: 400.0 mg/kg/injection, schedule: Q04DX003 (ip), vehicle: saline with Tween-80
[4] = dose: 100.0 mg/kg/injection, schedule: Q01DX009 (ip), vehicle: Klucel (hydroxypropylcellulose) (HPC)
[5] = dose: 200.0 mg/kg/injection, schedule: Q01DX009 (ip), vehicle: Klucel (hydroxypropylcellulose) (HPC)
[6] = dose: 400.0 mg/kg/injection, schedule: Q01DX001 (ip), vehicle: carboxymethylcellulose (CMC)
[7] = dose: 100.0 mg/kg/injection, schedule: Q01DX001 (ip), vehicle: Klucel (hydroxypropylcellulose) (HPC)
[8] = dose: 100.0 mg/kg/injection, schedule: Q04DX003 (ip), vehicle: Klucel (hydroxypropylcellulose) (HPC)
[9] = dose: 200.0 mg/kg/injection, schedule: Q01DX001 (ip), vehicle: Klucel (hydroxypropylcellulose) (HPC)
[10] = dose: 200.0 mg/kg/injection, schedule: Q04DX003 (ip), vehicle: Klucel (hydroxypropylcellulose) (HPC)
[11] = dose: 100.0 mg/kg/injection, schedule: Q01DX001 (ip), vehicle: saline
[12] = dose: 400.0 mg/kg/injection, schedule: Q04DX003 (ip), vehicle: Klucel (hydroxypropylcellulose) (HPC)

Measured: T/C

CC(Cc1ccc2c(c1)OCO2)C(C)Cc1ccc2c(c1)OCO2 (configuration not stated)
inactive: dose: 100.0 mg/kg/injection, schedule: Q01DX009 (ip), vehicle: other 102 % of control | dose: 100.0 mg/kg/injection, schedule: Q04DX003 (ip), vehicle: other 90 % of control | dose: 200.0 mg/kg/injection, schedule: Q01DX009 (ip), vehicle: other 109 % of control | dose: 200.0 mg/kg/injection, schedule: Q04DX003 (ip), vehicle: other 102 % of control | dose: 400.0 mg/kg/injection, schedule: Q01DX009 (ip), vehicle: other 91 % of control | dose: 400.0 mg/kg/injection, schedule: Q04DX003 (ip), vehicle: other 90 % of control

COc1ccc(C)cc1N=Nc1cc(C)ccc1OC
inactive: dose: 100.0 mg/kg/injection, schedule: Q01DX009 (ip), vehicle: gum acacia 100 % of control | dose: 100.0 mg/kg/injection, schedule: Q04DX003 (ip), vehicle: gum acacia 91 % of control | dose: 200.0 mg/kg/injection, schedule: Q01DX009 (ip), vehicle: gum acacia 91 % of control | dose: 200.0 mg/kg/injection, schedule: Q04DX003 (ip), vehicle: gum acacia 86 % of control | dose: 400.0 mg/kg/injection, schedule: Q01DX009 (ip), vehicle: gum acacia 88 % of control | dose: 400.0 mg/kg/injection, schedule: Q04DX003 (ip), vehicle: gum acacia 92 % of control

CN=C1N[N+]2=C(C)CCCC2(C)S1 (configuration not stated)
inactive: dose: 100.0 mg/kg/injection, schedule: Q04DX003 (ip), vehicle: saline 101 % of control | dose: 200.0 mg/kg/injection, schedule: Q04DX003 (ip), vehicle: saline 89 % of control

O=C1OC(=O)C2C3CC(C(Br)C3C(F)(Br)Br)C12 (configuration not stated)
inactive: dose: 100.0 mg/kg/injection, schedule: Q01DX009 (ip), vehicle: saline with Tween-80 87 % of control | [1] 115 % of control | dose: 200.0 mg/kg/injection, schedule: Q01DX009 (ip), vehicle: saline with Tween-80 93 % of control | [2] 98 % of control | dose: 400.0 mg/kg/injection, schedule: Q01DX009 (ip), vehicle: saline with Tween-80 90 % of control | [3] 91 % of control

CC1(CO)COCOC1
inactive: dose: 50.0 mg/kg/injection, schedule: Q01DX009 (ip), vehicle: acetone 104 % of control | dose: 100.0 mg/kg/injection, schedule: Q01DX009 (ip), vehicle: acetone 108 % of control | dose: 100.0 mg/kg/injection, schedule: Q04DX003 (ip), vehicle: acetone 95 % of control | dose: 200.0 mg/kg/injection, schedule: Q01DX009 (ip), vehicle: acetone 104 % of control | dose: 200.0 mg/kg/injection, schedule: Q04DX003 (ip), vehicle: acetone 105 % of control | dose: 400.0 mg/kg/injection, schedule: Q04DX003 (ip), vehicle: acetone 97 % of control

CCc1oc2cc([N+](=O)[O-])ccc2c1C(OC(C)=O)OC(C)=O
inactive: [4] 100 % of control | [5] 105 % of control | dose: 400.0 mg/kg/injection, schedule: Q01DX009 (ip), vehicle: Klucel (hydroxypropylcellulose) (HPC) 96 % of control

COC(=O)c1[nH]ncc1N=NN(C)C
inactive: dose: 176.0 mg/kg/injection, schedule: Q01DX001 (ip), vehicle: carboxymethylcellulose (CMC) 111 % of control | dose: 264.0 mg/kg/injection, schedule: Q01DX001 (ip), vehicle: carboxymethylcellulose (CMC) 120 % of control | [6] 113 % of control

O=C(NCc1ccncc1)Nc1ccccc1F
inactive: [7] 93 % of control | [4] 100 % of control | dose: 100.0 mg/kg/injection, schedule: Q04DX002 (ip), vehicle: Klucel (hydroxypropylcellulose) (HPC) 94 % of control and 103 % of control | [8] 94 % of control | [9] 104 % of control | [5] 98 % of control and 105 % of control | dose: 200.0 mg/kg/injection, schedule: Q04DX002 (ip), vehicle: Klucel (hydroxypropylcellulose) (HPC) 101 % of control and 91 % of control | [10] 97 % of control

NC(CSS(=O)(=O)O)=NCc1ccncc1
inactive: dose: 25.0 mg/kg/injection, schedule: Q04DX002 (ip), vehicle: saline 95 % of control | dose: 50.0 mg/kg/injection, schedule: Q04DX002 (ip), vehicle: saline 103 % of control | dose: 100.0 mg/kg/injection, schedule: Q04DX002 (ip), vehicle: saline 123 % of control

N#Cc1[nH]cnc1N
inactive: [11] 94 % of control | dose: 200.0 mg/kg/injection, schedule: Q01DX001 (ip), vehicle: saline 105 % of control | dose: 400.0 mg/kg/injection, schedule: Q01DX001 (ip), vehicle: saline 97 % of control

CCN(CC)CCOC(=O)C1CC1(c1ccccc1)c1ccccc1 (configuration not stated)
inactive: dose: 25.0 mg/kg/injection, schedule: Q01DX009 (ip), vehicle: Klucel (hydroxypropylcellulose) (HPC) 98 % of control | dose: 50.0 mg/kg/injection, schedule: Q01DX009 (ip), vehicle: Klucel (hydroxypropylcellulose) (HPC) 87 % of control | [4] 95 % of control and 98 % of control

C=CCN(CC=C)C(=O)CCN1CC1
inactive: dose: 1.25 mg/kg/injection, schedule: Q01DX Z (ip), vehicle: saline 96 % of control | dose: 2.5 mg/kg/injection, schedule: Q01DX Z (ip), vehicle: saline 96 % of control | dose: 5.0 mg/kg/injection, schedule: Q01DX Z (ip), vehicle: saline 100 % of control | dose: 10.0 mg/kg/injection, schedule: Q01DX Z (ip), vehicle: saline 98 % of control and 111 % of control | dose: 10.0 mg/kg/injection, schedule: Q01DX Z (oral), vehicle: saline 108 % of control | dose: 20.0 mg/kg/injection, schedule: Q01DX001 (ip), vehicle: saline 103 % of control | dose: 20.0 mg/kg/injection, schedule: Q01DX Z (ip), vehicle: saline 96 % of control | dose: 20.0 mg/kg/injection, schedule: Q01DX Z (oral), vehicle: saline 117 % of control | dose: 40.0 mg/kg/injection, schedule: Q01DX001 (ip), vehicle: saline 115 % of control | dose: 40.0 mg/kg/injection, schedule: Q01DX Z (oral), vehicle: saline 86 % of control

O=C1c2ccccc2-c2ccc(N=C(NO)C(F)(F)F)cc21
inactive: dose: 100.0 mg/kg/injection, schedule: Q01DX001 (ip), vehicle: carboxymethylcellulose (CMC) 118 % of control | dose: 200.0 mg/kg/injection, schedule: Q01DX001 (ip), vehicle: carboxymethylcellulose (CMC) 98 % of control | [6] 98 % of control

COc1ccccc1NC(=O)OCC#CCOC(=O)Nc1ccccc1OC
inactive: [8] 91 % of control | [10] 95 % of control | [12] 91 % of control

Oc1cc(O)c(CN2CCCCC2)cc1CN1CCCCC1
inactive: [11] 87 % of control

O=C(OCC(OC(=O)c1ccccc1)C1OCOC2COCOC21)c1ccccc1 (configuration not stated)
inactive: [7] 101 % of control | [9] 101 % of control | dose: 400.0 mg/kg/injection, schedule: Q01DX001 (ip), vehicle: Klucel (hydroxypropylcellulose) (HPC) 97 % of control

CCc1[nH]c(=S)nc(-c2ccccc2)c1-c1ccc([N+](=O)[O-])cc1O
inactive: [8] 95 % of control | [10] 100 % of control | [12] 95 % of control

CC(=O)Oc1cn(C)c2c1C(=O)CC(C)(C)C2
inactive: dose: 75.0 mg/kg/injection, schedule: Q04DX002 (ip), vehicle: Klucel (hydroxypropylcellulose) (HPC) 94 % of control | dose: 150.0 mg/kg/injection, schedule: Q04DX002 (ip), vehicle: Klucel (hydroxypropylcellulose) (HPC) 105 % of control | dose: 300.0 mg/kg/injection, schedule: Q04DX002 (ip), vehicle: Klucel (hydroxypropylcellulose) (HPC) 97 % of control

c1ccc(P(=NC2CCCC2)(c2ccccc2)c2ccccc2)cc1
inactive: [1] 89 % of control | [2] 92 % of control | [3] 87 % of control

CN1C(OO)CCOP1(=O)N(CCCl)CCCl (configuration not stated)
inactive: dose: 75.0 mg/kg/injection, schedule: Q01DX001 (ip), vehicle: DMSO 96 % of control | dose: 150.0 mg/kg/injection, schedule: Q01DX001 (ip), vehicle: DMSO 99 % of control

O=[N+]([O-])c1ccccc1N=Cc1ccccc1O.[Co]
inactive: dose: 100.0 mg/kg/injection, schedule: Q01DX001 (ip), vehicle: other 98 % of control | dose: 200.0 mg/kg/injection, schedule: Q01DX001 (ip), vehicle: other 104 % of control
